# Measured values: ChEMBL document CHEMBL1201862, “PubChem BioAssay data set” (2004)
# Calls of active or inactive are those of the source. Where a SMILES comes first, the peptide text is derived from it. The star is where a group is joined. Boc = CC(C)(C)OC(=O)*; Bn = c1ccc(C*)cc1; NHNH2 = NN*
# How the values were obtained:
# [1] = biological target: T1, Voltage-gated N-type calcium channel alpha-1B subunit/Amyloid beta A4 precursor protein-binding family A member 1 (Homo sapiens, UniProt Q00975+Q02410); assay type: protein assay
# Protein RecA = biological target: T2, Protein RecA (Mycobacterium tuberculosis, UniProt P9WHJ3); test: Fluorescence Cell-Free Homogeneous Dose Retest to Identify Inhibitors of RecA-Intein Splicing Activity. [Related pubchem assays (depositor defined):AID2097, AID2223, AID489010, AID492950]; assay type: functional
# T2 sequence (P9WHJ3 whole entry): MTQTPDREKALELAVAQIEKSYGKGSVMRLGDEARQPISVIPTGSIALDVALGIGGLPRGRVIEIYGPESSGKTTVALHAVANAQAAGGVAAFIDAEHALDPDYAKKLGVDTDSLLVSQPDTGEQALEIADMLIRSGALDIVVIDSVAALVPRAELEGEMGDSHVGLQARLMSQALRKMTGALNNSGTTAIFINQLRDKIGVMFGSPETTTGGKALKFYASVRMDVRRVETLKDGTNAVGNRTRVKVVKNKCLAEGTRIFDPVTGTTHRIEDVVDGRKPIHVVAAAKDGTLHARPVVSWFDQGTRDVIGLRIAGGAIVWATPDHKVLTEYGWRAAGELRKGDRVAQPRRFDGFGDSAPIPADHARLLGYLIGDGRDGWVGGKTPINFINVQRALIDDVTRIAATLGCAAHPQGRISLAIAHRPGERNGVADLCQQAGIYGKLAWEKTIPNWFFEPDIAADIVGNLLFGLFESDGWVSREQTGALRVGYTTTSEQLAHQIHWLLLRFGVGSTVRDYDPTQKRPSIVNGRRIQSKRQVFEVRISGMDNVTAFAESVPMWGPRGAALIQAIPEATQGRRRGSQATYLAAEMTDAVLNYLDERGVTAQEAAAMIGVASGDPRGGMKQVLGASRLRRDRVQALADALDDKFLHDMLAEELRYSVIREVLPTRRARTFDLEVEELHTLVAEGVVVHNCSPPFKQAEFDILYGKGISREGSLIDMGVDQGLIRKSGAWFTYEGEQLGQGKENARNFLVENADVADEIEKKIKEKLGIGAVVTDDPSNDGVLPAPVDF
# [2] = biological target: T3, Replicative DNA helicase DnaB (Mycobacterium tuberculosis, UniProt P9WMR3); test: DnaB intein splicing inhibitors, dose response, biochemical, cell-free fluorescence (AID 449749); assay type: functional
# T3 sequence (P9WMR3 whole entry): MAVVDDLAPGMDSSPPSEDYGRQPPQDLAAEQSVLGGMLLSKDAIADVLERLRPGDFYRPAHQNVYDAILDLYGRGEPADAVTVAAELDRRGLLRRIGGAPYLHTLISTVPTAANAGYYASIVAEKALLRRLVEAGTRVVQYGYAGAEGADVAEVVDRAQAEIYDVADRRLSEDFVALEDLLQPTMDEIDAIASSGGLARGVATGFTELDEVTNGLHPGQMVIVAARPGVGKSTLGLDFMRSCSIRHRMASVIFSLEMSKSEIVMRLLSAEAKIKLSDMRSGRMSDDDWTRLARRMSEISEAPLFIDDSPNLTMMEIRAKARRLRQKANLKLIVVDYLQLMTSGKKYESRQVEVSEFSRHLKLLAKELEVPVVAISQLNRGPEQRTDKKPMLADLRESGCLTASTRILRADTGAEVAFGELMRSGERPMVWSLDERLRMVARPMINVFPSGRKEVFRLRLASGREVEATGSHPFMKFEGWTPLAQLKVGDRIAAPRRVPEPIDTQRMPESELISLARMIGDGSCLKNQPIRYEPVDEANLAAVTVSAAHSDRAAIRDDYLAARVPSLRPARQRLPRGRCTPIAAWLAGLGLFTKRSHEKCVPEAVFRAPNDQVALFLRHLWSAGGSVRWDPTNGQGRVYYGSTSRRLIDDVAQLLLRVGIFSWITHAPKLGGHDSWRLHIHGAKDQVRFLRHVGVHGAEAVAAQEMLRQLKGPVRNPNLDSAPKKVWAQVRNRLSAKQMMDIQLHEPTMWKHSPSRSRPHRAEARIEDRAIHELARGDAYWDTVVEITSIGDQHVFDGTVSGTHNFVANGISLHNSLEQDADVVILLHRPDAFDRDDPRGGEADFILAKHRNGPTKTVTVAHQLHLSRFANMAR
# [3] = biological target: T1, Voltage-gated N-type calcium channel alpha-1B subunit/Amyloid beta A4 precursor protein-binding family A member 1; assay type: protein assay; remark: listed apart in the source
# Aminopeptidase N = biological target: T4, Aminopeptidase N (Plasmodium falciparum FcB1/Columbia, UniProt O96935); test: P. falciparum M1AAP inhibitors, biochemical, fluorogenic H-Leu-NHMec substrate, 1536-well (AID 1445); set-up: species or system Plasmodium falciparum 3D7, 3D7
# T4 sequence (O96935 whole entry): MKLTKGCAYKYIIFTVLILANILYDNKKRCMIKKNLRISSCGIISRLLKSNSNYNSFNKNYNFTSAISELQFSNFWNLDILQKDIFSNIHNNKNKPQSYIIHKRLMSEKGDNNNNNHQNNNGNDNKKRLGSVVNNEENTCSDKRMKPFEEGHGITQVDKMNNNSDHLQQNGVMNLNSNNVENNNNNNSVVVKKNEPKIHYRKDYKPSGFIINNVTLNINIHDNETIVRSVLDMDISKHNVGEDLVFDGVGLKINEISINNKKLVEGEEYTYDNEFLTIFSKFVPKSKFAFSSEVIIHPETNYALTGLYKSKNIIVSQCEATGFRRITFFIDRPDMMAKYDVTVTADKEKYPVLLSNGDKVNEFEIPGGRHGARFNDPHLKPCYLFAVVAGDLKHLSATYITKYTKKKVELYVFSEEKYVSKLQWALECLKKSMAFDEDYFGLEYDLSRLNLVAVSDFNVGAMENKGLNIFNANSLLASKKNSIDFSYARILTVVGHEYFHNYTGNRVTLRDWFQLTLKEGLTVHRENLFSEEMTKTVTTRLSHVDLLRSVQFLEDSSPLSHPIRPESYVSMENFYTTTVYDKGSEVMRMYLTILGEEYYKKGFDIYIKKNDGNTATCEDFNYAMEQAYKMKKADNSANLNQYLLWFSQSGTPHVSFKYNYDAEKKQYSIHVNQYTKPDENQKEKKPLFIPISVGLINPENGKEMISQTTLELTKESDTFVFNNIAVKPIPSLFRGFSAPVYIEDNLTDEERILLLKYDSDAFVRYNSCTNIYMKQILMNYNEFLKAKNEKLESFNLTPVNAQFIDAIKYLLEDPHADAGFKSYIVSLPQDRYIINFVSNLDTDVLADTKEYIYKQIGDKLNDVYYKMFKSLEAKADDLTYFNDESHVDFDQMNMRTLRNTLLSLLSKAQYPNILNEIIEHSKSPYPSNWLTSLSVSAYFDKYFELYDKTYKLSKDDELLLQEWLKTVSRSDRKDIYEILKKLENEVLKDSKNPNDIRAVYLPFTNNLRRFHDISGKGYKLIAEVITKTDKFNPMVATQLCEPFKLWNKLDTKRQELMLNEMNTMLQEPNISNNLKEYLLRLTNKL
# HEK293 [4] = test: inhibitors of LMP1-driven NF-kB reporter, dose response, cell-based, HEK293, luciferase, cherry-pick (AID 588343); assay type: functional; settings: Homo sapiens
# HEK293 [5] = test: NOD2 signaling inhibitors in MDP-stimulated cells, cell-based, uHTS, luminescence (AID 2001); assay type: functional; settings: Homo sapiens
# HEK293 [6] = test: cells; assay type: functional, cell-based; settings: Homo sapiens
# [7] = inhibitors of intracellular T. cruzi replication, confirmation, NIH3T3 host cells, beta-gal luminescence (AID 2044); assay type: functional, cell-based;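 further: intracellular parasites grown in NIH/3T3 mouse fibroblasts as host cells; luminescent beta-galactosidase reporter signal from transgenic T. cruzi replicating inside host cells; inhibitors lower the luminescence signal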
# [8] = growth suppression of PTEN-null colon cells, dose response, cell-based, HCT116 PTEN knockout (AID 1047); assay type: functional;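 further: HCT116 colon tumor cells with PTEN knocked out; cells exposed to compound for 60 hours before readout; potency for loss of cell viability measured by luminescence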
# HEK293 [9] = test: NOD1 signaling inhibitors, primary screen, cell-based, luminescence, uHTS (AID 1578); assay type: functional; settings: Homo sapiens
# [10] = cytotoxicity toward NIH3T3 fibroblasts, dose response, counter-screen, cell-based, ATP luminescence, mouse fibroblasts (AID 2010); assay type: functional;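 further: cells exposed to compound for about 90 hours before reading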
# HEK293 [11] = test: cells; assay type: functional, cell-based; settings: Homo sapiens; remark: listed apart in the source
# [12] = growth suppression of beta-catenin-knockout colon cells, dose response, cell-based, HCT116, human colon tumor (AID 1045); assay type: functional;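 further: HCT116 colon tumor cells with beta catenin knocked out; cells exposed to compound for 60 hours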
# [13] = biological target: T5, Polyadenylate-binding protein 1 (Homo sapiens, UniProt P11940); test: PABP1 MLLE–PAM2 interaction inhibitors, dose response, miRNA deadenylation inhibitor project, biochemical, fluorescence polarization, Cy5-PAM2 peptide, secondary (AID 602260); assay type: functional; settings: read-out: IC50_Mean
# [14] = biological target: T5, Polyadenylate-binding protein 1; test: PABP1 MLLE–PAM2 binding inhibitor potency, dose response, biochemical, fluorescence polarization, FITC-PAM2 peptide (AID 602259); assay type: functional; settings: read-out: IC50_Mean
# Large T antigen = Large T antigen (Simian virus 40, UniProt P03070); assay type: functional, Betapolyomavirus macacae;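 further: Confirmatory-stage PubChem screen for compounds that inhibit SV40 T antigen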
# [15] = biological target: FAD-linked sulfhydryl oxidase ALR (Homo sapiens, UniProt P55789); test: inhibitors of human ALR sulfhydryl oxidase, dose response, biochemical, H2O2 detection, luminescence, cherry-pick (AID 493248)
# [16] = biological target: Induced myeloid leukemia cell differentiation protein Mcl-1 (Homo sapiens, UniProt Q07820); assay type: functional
# [17] = cytotoxicity in HEK-293T cells, dose response, cytotoxicity control for BCR NF-kB inhibitor project, luminescence, B-cell screen hits (AID 489021); assay type: functional, cell-based;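 further: HEK-293T cells carrying an NF-kB luciferase reporter; cells exposed to compound for about 14 hours before viability readout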
# T1 sequence (Q00975 whole entry): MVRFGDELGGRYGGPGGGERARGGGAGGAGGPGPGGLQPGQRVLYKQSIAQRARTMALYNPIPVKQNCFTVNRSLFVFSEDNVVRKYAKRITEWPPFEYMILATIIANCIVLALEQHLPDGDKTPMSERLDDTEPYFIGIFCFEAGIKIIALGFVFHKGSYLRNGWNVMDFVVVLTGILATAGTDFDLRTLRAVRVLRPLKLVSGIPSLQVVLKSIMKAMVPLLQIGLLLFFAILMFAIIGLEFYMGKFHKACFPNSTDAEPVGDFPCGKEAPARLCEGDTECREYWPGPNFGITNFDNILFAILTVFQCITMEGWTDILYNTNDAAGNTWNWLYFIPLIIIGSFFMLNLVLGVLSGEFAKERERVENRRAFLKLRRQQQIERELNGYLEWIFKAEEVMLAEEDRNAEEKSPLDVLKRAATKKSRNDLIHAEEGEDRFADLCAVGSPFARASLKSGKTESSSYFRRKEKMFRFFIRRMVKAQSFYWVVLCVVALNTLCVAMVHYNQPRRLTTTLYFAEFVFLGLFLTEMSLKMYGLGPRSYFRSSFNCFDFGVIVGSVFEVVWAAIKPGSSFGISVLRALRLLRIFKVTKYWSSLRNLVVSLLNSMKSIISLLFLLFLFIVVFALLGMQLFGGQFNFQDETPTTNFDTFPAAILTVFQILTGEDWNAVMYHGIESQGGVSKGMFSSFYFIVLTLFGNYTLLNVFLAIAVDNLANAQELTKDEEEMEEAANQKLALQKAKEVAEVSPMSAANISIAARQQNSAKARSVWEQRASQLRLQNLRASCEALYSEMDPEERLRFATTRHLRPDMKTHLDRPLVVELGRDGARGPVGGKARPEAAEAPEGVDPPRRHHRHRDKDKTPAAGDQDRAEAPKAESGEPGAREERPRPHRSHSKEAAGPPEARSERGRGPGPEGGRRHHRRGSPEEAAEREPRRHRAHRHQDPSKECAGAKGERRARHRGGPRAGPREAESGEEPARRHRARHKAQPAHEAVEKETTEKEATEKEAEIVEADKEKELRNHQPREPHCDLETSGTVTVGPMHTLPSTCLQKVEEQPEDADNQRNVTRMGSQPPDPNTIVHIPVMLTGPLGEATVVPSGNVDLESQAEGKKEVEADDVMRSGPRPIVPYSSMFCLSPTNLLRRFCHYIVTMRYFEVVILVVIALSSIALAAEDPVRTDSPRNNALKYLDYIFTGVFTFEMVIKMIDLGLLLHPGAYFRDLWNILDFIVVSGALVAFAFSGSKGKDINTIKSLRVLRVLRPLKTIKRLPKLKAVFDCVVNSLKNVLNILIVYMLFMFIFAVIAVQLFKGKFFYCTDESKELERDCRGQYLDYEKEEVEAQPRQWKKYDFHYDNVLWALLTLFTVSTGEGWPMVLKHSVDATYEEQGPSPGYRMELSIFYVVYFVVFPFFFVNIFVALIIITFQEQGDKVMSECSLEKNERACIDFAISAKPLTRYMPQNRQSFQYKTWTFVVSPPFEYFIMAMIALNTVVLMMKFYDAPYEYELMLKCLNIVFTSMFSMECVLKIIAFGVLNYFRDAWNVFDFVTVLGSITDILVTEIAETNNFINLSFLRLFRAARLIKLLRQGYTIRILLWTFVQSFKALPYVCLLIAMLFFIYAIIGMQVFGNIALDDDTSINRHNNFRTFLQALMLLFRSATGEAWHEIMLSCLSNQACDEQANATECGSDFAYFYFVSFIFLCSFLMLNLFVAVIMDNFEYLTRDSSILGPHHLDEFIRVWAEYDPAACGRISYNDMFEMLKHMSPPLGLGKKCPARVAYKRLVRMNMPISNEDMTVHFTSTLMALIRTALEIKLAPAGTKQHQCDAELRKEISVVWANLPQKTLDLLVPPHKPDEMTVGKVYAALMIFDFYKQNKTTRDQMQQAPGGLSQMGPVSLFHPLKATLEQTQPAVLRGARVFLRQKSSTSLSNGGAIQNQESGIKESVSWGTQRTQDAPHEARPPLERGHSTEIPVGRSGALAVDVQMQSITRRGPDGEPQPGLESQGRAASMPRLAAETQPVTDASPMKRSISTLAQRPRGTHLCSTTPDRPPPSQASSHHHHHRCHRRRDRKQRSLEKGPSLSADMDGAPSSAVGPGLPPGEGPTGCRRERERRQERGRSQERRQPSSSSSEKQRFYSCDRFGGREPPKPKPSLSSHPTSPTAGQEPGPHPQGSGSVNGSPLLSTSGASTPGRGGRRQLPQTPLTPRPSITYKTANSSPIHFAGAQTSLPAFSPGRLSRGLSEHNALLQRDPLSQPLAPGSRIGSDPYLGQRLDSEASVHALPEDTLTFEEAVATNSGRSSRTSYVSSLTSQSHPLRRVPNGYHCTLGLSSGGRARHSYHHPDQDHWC
# T1 sequence (Q02410 whole entry): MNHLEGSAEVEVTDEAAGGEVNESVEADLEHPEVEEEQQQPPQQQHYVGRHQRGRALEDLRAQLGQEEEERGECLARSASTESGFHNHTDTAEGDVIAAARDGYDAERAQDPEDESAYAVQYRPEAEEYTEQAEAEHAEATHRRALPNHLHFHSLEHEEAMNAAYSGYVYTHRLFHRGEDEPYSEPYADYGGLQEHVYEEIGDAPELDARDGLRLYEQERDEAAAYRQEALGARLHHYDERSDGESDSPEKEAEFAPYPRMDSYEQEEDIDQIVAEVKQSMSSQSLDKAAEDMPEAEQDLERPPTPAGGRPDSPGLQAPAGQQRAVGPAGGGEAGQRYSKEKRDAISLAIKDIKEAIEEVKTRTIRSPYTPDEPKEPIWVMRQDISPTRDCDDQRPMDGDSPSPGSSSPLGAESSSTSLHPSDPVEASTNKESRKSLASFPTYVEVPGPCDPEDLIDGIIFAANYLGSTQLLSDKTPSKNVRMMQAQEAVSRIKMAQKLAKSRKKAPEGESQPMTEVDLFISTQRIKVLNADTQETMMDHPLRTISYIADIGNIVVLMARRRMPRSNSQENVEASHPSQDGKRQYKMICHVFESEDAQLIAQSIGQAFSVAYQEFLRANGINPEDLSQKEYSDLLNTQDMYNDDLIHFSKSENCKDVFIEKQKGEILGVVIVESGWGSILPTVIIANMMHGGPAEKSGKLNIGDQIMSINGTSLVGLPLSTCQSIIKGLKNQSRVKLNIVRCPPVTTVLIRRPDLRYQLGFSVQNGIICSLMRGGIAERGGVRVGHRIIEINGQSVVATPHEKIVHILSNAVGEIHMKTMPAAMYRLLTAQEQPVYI
# T5 sequence (P11940 whole entry): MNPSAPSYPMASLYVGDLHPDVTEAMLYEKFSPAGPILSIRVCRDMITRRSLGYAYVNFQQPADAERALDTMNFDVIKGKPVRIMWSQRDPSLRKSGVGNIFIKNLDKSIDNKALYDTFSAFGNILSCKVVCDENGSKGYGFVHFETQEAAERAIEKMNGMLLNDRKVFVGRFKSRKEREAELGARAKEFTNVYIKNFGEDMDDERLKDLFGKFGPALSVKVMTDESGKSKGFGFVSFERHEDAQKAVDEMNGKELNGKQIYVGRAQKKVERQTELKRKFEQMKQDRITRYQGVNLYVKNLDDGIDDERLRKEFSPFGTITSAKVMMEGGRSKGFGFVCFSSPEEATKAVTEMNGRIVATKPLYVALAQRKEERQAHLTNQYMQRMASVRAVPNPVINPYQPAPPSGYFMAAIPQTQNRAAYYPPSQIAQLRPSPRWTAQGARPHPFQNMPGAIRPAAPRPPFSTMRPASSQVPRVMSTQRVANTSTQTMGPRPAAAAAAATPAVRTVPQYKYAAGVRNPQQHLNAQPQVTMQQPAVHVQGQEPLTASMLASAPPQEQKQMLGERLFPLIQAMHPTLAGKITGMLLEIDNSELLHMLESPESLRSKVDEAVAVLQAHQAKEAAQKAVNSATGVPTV
# Sequence of Induced myeloid leukemia cell differentiation protein Mcl-1 (Q07820 whole entry): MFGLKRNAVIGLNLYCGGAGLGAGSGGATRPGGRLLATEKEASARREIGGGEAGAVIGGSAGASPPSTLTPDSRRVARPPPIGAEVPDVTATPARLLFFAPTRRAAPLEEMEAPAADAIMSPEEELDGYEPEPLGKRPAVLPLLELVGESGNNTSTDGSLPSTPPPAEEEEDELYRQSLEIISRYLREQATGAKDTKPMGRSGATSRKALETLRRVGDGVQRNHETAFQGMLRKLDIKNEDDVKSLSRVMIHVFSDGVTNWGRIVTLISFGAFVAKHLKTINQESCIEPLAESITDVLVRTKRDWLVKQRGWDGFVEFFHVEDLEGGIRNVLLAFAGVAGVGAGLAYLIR
# Sequence of Large T antigen (P03070 whole entry): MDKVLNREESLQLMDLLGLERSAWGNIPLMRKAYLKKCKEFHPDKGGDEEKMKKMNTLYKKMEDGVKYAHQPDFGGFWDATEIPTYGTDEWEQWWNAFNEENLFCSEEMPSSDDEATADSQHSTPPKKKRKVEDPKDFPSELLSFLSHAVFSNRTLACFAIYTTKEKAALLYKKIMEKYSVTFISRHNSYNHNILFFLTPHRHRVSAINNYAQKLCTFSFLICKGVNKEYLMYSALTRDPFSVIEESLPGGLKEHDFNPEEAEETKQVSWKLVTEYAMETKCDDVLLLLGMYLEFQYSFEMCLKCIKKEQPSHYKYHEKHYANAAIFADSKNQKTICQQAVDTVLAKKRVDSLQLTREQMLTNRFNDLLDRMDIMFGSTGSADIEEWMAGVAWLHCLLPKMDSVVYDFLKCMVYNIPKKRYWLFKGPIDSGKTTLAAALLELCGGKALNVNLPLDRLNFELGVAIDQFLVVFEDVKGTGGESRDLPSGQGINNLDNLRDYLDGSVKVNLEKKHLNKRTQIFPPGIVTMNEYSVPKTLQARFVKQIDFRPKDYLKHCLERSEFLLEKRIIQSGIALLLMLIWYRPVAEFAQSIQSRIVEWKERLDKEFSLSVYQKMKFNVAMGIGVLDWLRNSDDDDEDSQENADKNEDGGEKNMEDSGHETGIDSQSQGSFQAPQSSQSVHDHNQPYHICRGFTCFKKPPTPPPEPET
# Sequence of FAD-linked sulfhydryl oxidase ALR (P55789 whole entry): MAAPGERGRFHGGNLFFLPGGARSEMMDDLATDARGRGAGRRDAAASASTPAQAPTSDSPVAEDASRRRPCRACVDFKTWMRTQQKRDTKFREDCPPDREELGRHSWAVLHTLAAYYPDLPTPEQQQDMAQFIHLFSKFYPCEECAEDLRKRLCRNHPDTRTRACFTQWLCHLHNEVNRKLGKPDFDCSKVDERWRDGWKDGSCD
structure (smiles),measurement,setting,value
N#Cc1c(C#N)c(O)c2ccccc2c1O,IC50,[1],3.83 µM (active)
same,EC50,Protein RecA,1.55 µM (active)
same,AC50,[2],> 380 µM (inactive)
same,IC50,[3],25.8 µM (active)
Cc1ccc2nc(O)c(C3=NN(C(=O)CCC(=O)O)C(c4cccs4)C3)c(-c3ccccc3)c2c1 (configuration not stated),IC50,Aminopeptidase N,68.9 µM (active)
CC(C)CC(NC(=O)C(COCc1ccccc1)NC(=O)OC(C)(C)C)C(=O)NN (configuration not stated) (Boc-Ser(Bn)-Leu-NHNH2; configuration not given here),IC50,Aminopeptidase N,81.4 µM (active)
CC(=O)Nc1nc(C)c(-c2csc(Nc3cccc([N+](=O)[O-])c3)n2)s1,AC50,HEK293 [4],2.16 µM (active)
same,IC50,HEK293 [5],8.61 µM (active)
same,IC50,HEK293 [6],17.1 µM (active)
same,EC50,[7],0.995 µM (active)
same,EC50,[8],18.2 µM (active)
same,EC50,HEK293 [9],9.4 µM (active)
same,EC50,[10],14.1 µM (active)
same,IC50,HEK293 [11],11.1 µM (active)
same,EC50,[12],24.8 µM (active)
COc1ccc(/C=N/NC(=O)c2cccc(NC(=O)c3ccccc3Cl)c2)cc1OC,IC50,Aminopeptidase N,53.9 µM (active)
COc1ccc(/C=C(\CC(=O)O)c2nc3ccccc3o2)cc1,IC50,Aminopeptidase N,81.5 µM (active)
N#CC1=C(N)N=C(S)C(C(N)=O)C1c1ccccc1F (configuration not stated),IC50,[1],13.6 µM (active)
same,IC50,[13],> 66 µM (inactive)
same,IC50,[3],> 50 µM (inactive)
same,IC50,[14],> 66 µM (inactive)
same,IC50,Large T antigen,60 µM (active)
same,AC50,[15],8.62 µM (active)
O=[N+]([O-])c1ccc(-c2cc(-c3ccc(Cl)cc3)n[nH]2)cc1,IC50,[1],> 56.8 µM (not active)
same,IC50,[16],2.5 µM (active)
same,IC50,[3],> 50 µM (inactive)
COc1ccc(/C=C2/SC(=S)N(CCC(=O)O)C2=O)cc1,IC50,[17],> 80 µM (inactive)
